Experimental findings from patent US9925189B2, “Heterocyclic receptor agonists for the treatment of diabetes and metabolic disorders” (CymaBay Therapeutics, Inc., priority 2006, dated 2018) are described below.

This experiment has as its target T1, IC-GPCR2 (Homo sapiens, UniProt Q8TDV5, S309L).
T1 construct: expressed in transfected cells
T1 sequence (Q8TDV5 1-335 S309L): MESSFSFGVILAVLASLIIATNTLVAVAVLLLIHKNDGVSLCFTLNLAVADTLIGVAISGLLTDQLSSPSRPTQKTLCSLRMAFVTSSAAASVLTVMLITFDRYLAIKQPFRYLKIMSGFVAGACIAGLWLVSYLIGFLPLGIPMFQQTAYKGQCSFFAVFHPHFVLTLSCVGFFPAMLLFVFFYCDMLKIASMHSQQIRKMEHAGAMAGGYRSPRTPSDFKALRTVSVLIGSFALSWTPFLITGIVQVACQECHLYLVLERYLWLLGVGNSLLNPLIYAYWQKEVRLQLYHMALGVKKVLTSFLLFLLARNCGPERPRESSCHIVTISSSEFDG
Nature of the experiment: Stimulation of cAMP in CHO cells stably expressing IC-GPCR2 (HTRF cAMP assay). It is filed as cell-based. The note with it: 0.5 h, 30 minutes, IC-GPCR2 stably expressing CHO cells, read-out: Activity at 10 uM (% change in FRET signal from DMSO control). As to the method:
This assay was developed using a stable cell line expressing IC-GPCR-2, generated as follows. IC-GPCR2 (SEQ ID NO:1) was cloned into Gateway pDEST 40vector (Invitrogen), using the Gateway cloning system (invitrogen) according to the manufacturer's instructions. A stable cell line was generated by transfecting a 10 cm plate of CHO cells (source) with 8 ug of this construct using Transit-CHO transfection kit (Mirus). CHO cells were plated the day prior to transfection at a density of 3,000,000 cells/plate. Clones were selected using the antibiotic G418 at 500 ug/ml. 23 clones were picked and assayed for the expression of the receptor by measuring changes in intracellular cAMP levels in response to an IC-GPCR2 agonist.
To measure cAMP activity in response to IC-GPCR2 agonist, the clones were plated in 96 well plates at 17500 cells per well. On the day after plating, cells were incubated with the IC-CPCR2 agonist at […] for 30 minutes in Ham's F12 Media (Gibco) with 0.04% DMSO. cAMP was measured using the cAMP dynamic kit from Cis Bio (Bedford, Mass.) according to the manufacturer's instructions. Briefly, cells were lysed, and cAMP levels determined by competitive immunoassay using D2 labeled cAMP, and europium cryptate tagged anti cAMP antibody. When in close proximity, the D2 and europium cryptate undergo fluorescence resonance energy transfer (FRET), which is measured as a fluorescence ratio (665 nm/620 nm). Unlabelled cAMP in the cell lysate competed with the D2 labeled cAMP for the europium crypate labeled antibody. The resulting decrease in FRET signal corresponded to intracellular cAMP levels. Fluorescence was read on a BMG Labtech PHERAstar, software version 1.50.
Compounds were dissolved in 100% DMSO to a concentration of […] to provide stock solutions. To determine activity against IC-GPCR2, compounds were incubated with IC-GPCR2 stably expressing cells (described above), at 6-8 concentrations ranging from 0.00003 to 10 micromolar, in 96 well plates, in 50 ul of Hams F12 media for 30 minutes. Cells were plated at 17500 cells per well 1 day before running the assay. All compounds were also screened against the parental CHO cells. cAMP was measured using the cAMP dynamic kit from Cis Bio (Bedford, Mass.), according to the manufacturer's instructions. Briefly, cells were lysed and cAMP levels determined by competitive immunoassay using D2 labeled cAMP, and europium cryptate tagged anti cAMP antibody. When in close proximity, the D2 and europium cryptate undergo fluorescence resonance energy transfer (FRET), which is measured as a fluorescence ratio (665 nm/620 nm). Unlabelled cAMP in the cell lysate competed with the D2 labeled cAMP for the europium crypate labeled antibody. The resulting decrease in FRET signal corresponded to intracellular cAMP levels.
Activities of compounds disclosed in Table 1 and Table 2 below are expressed as the % change in FRET signal from DMSO control. “*” no activity observed when tested at 10 micromolar but no higher concentrations were tested. NT indicates the compound was not tested at the indicated concentration.

With `CC(C)COC(=O)N1CCC(c2nc(COc3ccc(S(C)(=O)=O)cc3)cs2)CC1` [Example 24, 4-[4-(4-Methanesulfonyl-phenoxymethyl)-thiazol-2-yl]-piperidine-1-carboxylic acid isobutyl ester], the activation at 10 µM was 58%. Regarding `CS(=O)(=O)c1ccc(OCc2csc(C3CCN(C(=O)OC45CC6CC(CC(C6)C4)C5)CC3)n2)cc1` [Example 25, 4-[4-(4-Methanesulfonyl-phenoxymethyl)-thiazol-2-yl]-piperidine-1-carboxylic acid adamantan-1-yl ester], the activation at 10 µM was 23%. As to `COC(=O)N1CCC(c2nc(COc3ccc(S(C)(=O)=O)cc3)cs2)CC1` [Example 26, 4-[4-(4-Methanesulfonyl-phenoxymethyl)-thiazol-2-yl]-piperidine-1-carboxylic acid methyl ester], the activation at 10 µM came to 58%.

For the compound `CS(=O)(=O)c1ccc(OCc2csc(C3CCN(C(=O)Oc4ccc(F)cc4)CC3)n2)cc1` [Example 27, 4-[4-(4-Methanesulfonyl-phenoxymethyl)-thiazol-2-yl]-piperidine-1-carboxylic acid 4-fluoro-phenyl ester], the activation at 10 µM is 63%.

`COc1ccc(OC(=O)N2CCC(c3nc(COc4ccc(S(C)(=O)=O)cc4)cs3)CC2)cc1` [Example 28, 4-[4-(4-Methanesulfonyl-phenoxymethyl)-thiazol-2-yl]-piperidine-1-carboxylic acid 4-methoxy-phenyl ester]: the activation at 10 µM is 62%.

Consider `CS(=O)(=O)c1ccc(OCc2csc(C3CCN(C(=O)Oc4cccc5ccccc45)CC3)n2)cc1` [Example 29, 4-[4-(4-Methanesulfonyl-phenoxymethyl)-thiazol-2-yl]-piperidine-1-carboxylic acid naphthalen-1-yl ester], for which the activation at 10 µM worked out at 51%.

For `CC(C)COC(=O)N1CCC(c2nc(COc3ccc(-n4cnnn4)cc3)cs2)CC1` [Example 30, 4-[4-(4-Tetrazol-1-yl-phenoxymethyl)-thiazol-2-yl]-piperidine-1-carboxylic acid isobutyl ester], the activation at 10 µM was found to be 73%. As for `CCCCCOC(=O)N1CCC(c2nc(COc3ccc(-n4cnnn4)cc3)cs2)CC1` [Example 31, 4-[4-(4-Tetrazol-1-yl-phenoxymethyl)-thiazol-2-yl]-piperidine-1-carboxylic acid pentyl ester], the figure is 88%; as for `O=C(OCCF)N1CCC(c2nc(COc3ccc(-n4cnnn4)cc3)cs2)CC1` [Example 32, 4-[4-(4-Tetrazol-1-yl-phenoxymethyl)-thiazol-2-yl]-piperidine-1-carboxylic acid 2-fluoro-ethyl ester], 88%. As for `CCCCOC(=O)N1CCC(c2nc(COc3ccc(-n4cnnn4)cc3)cs2)CC1` [Example 33, 4-[4-(4-Tetrazol-1-yl-phenoxymethyl)-thiazol-2-yl]-piperidine-1-carboxylic acid butyl ester], the figure is 77%; as for `CC(C)(C)COC(=O)N1CCC(c2nc(COc3ccc(-n4cnnn4)cc3)cs2)CC1` [Example 34, 4-[4-(4-Tetrazol-1-yl-phenoxymethyl)-thiazol-2-yl]-piperidine-1-carboxylic acid 2,2-dimethyl-propyl ester], 70%. For the compound `CCCCCCOC(=O)N1CCC(c2nc(COc3ccc(-n4cnnn4)cc3)cs2)CC1` [Example 35, 4-[4-(4-Tetrazol-1-yl-phenoxymethyl)-thiazol-2-yl]-piperidine-1-carboxylic acid hexyl ester], the activation at 10 µM was 64%.

As to `CCCCC(CC)COC(=O)N1CCC(c2nc(COc3ccc(-n4cnnn4)cc3)cs2)CC1` (stereo not shown) [Example 36, 4-[4-(4-Tetrazol-1-yl-phenoxymethyl)-thiazol-2-yl]-piperidine-1-carboxylic acid 2-ethyl-hexyl ester], the activation at 10 µM came to 95%. Consider `O=C(OCCOCc1ccccc1)N1CCC(c2nc(COc3ccc(-n4cnnn4)cc3)cs2)CC1` [Example 37, 4-[4-(4-Tetrazol-1-yl-phenoxymethyl)-thiazol-2-yl]-piperidine-1-carboxylic acid 2-benzyloxy-ethyl ester], for which the activation at 10 µM was 80%. For `CC(C)[C@@H]1CC[C@@H](C)C[C@H]1OC(=O)N1CCC(c2nc(COc3ccc(-n4cnnn4)cc3)cs2)CC1` [Example 38, 4-[4-(4-Tetrazol-1-yl-phenoxymethyl)-thiazol-2-yl]-piperidine-1-carboxylic acid 2-isopropyl-5-methyl-cyclohexyl ester] the value was 39%; for `CS(=O)(=O)c1ccc(OCc2csc(C3CCN(C(=O)C45CC6CC(CC(C6)C4)C5)CC3)n2)cc1` [Example 39, Adamantan-1-yl-{4-[4-(4-methanesulfonyl-phenoxymethyl)-thiazol-2-yl]-piperidin-1-yl}-methanone], 9%. `CS(=O)(=O)c1ccc(OCc2csc(C3CCN(C(=O)c4cccnc4)CC3)n2)cc1` [Example 40, {4-[4-(4-Methanesulfonyl-phenoxymethyl)-thiazol-2-yl]-piperidin-1-yl}-pyridin-3-yl-methanone]: the activation at 10 µM was found to be 21%. As for `CC(C)(C)CC(=O)N1CCC(c2nc(COc3ccc(-n4cnnn4)cc3)cs2)CC1` [Example 41, 3,3-Dimethyl-1-{4-[4-(4-tetrazol-1-yl-phenoxymethyl)-thiazol-2-yl]-piperidin-1-yl}-butan-1-one], the figure is 75%; as for `COC(=O)C(=O)N1CCC(c2nc(COc3ccc(-n4cnnn4)cc3)cs2)CC1` [Example 42, Oxo-{4-[4-(4-tetrazol-1-yl-phenoxymethyl)-thiazol-2-yl]-piperidin-1-yl}-acetic acid methyl ester], 67%; as for `CCOC(=O)CC(=O)N1CCC(c2nc(COc3ccc(-n4cnnn4)cc3)cs2)CC1` [Example 43, 3-Oxo-3-{4-[4-(4-tetrazol-1-yl-phenoxymethyl)-thiazol-2-yl]-piperidin-1-yl}-propionic acid ethyl ester], 47%.

Regarding `CN1CCN(C(=O)N2CCC(c3nc(COc4ccc(-n5cnnn5)cc4)cs3)CC2)CC1` [Example 44, (4-Methyl-piperazin-1-yl)-{4-[4-(4-tetrazol-1-yl-phenoxymethyl)-thiazol-2-yl]-piperidin-1-yl}-methanone], the activation at 10 µM was found to be 53%. As to `CCN(CC)C(=O)N1CCC(c2nc(COc3ccc(-n4cnnn4)cc3)cs2)CC1` [Example 45, 4-[4-(4-Tetrazol-1-yl-phenoxymethyl)-thiazol-2-yl]-piperidine-1-carboxylic acid diethylamide], the activation at 10 µM worked out at 84%. As for `CCNC(=O)N1CCC(c2nc(COc3ccc(-n4cnnn4)cc3)cs2)CC1` [Example 46, 4-[4-(4-Tetrazol-1-yl-phenoxymethyl)-thiazol-2-yl]-piperidine-1-carboxylic acid ethylamide], the figure is 30%. Regarding `CS(=O)(=O)c1ccc(OCc2csc(C3CCN(c4ncccn4)CC3)n2)cc1` [Example 47, 2-{4-[4-(4-Methanesulfonyl-phenoxymethyl)-thiazol-2-yl]-piperidin-1-yl}-pyrimidine], the activation at 10 µM turned out to be 51%. For `CCc1cnc(N2CCC(c3nc(COc4ccc(S(C)(=O)=O)cc4)cs3)CC2)nc1` [Example 51, 5-Ethyl-2-{4-[4-(4-methanesulfonyl-phenoxymethyl)-thiazol-2-yl]-piperidin-1-yl}-pyrimidine], the activation at 10 µM was 57%.
